Columns and labels:
Assay type in all cases: cell-based
[1] = tested on: GST-π; experiment: Western blot analysis of GST-π knockdown; conditions: M7609 cells
Experimental: On the day before transfection, M7609 cells were plated on a 100 mm plastic tissue culture dish using 10% FBS-containing RPMI-1640 medium containing no antibiotic so as to give 1×10^6 cells/10 mL. 600 pmol of GST-π siRNA (SEQ ID No: 1: […], siRNA ID#2385, Ambion) was added to 1 mL of Opti-MEM I Reduced Serum Medium (GIBCO) and mixed gently. Subsequently, 35 μL of Lipofectamine RNAiMAX (Invitrogen) was diluted in 1 mL of Opti-MEM I Reduced Serum Medium and mixed gently. The diluted GST-π siRNA and the diluted Lipofectamine RNAiMAX were combined and gently mixed, and then incubated at room temperature for 10 min. During this time, the medium was replaced with 10 mL of Opti-MEM I Reduced Serum Medium. After the 10 min. incubation, the complex between GST-π siRNA and Lipofectamine RNAiMAX was added to the cells and incubated at 37° C. under an atmosphere containing 5% CO2. After 5 hours incubation, it was replaced with 10 mL of 10% FBS-containing RPMI-1640 medium containing no antibiotic. […] On the 1st, 2nd, 3rd, and 4th days after transfection with GST-π siRNA, the number of cells was counted, and knockdown of GST-π was examined. Knockdown of GST-π was analyzed by a western blot method as described below.
Western blot analysis of GST-π knockdown was carried out using cells harvested at above-mentioned each point of time after transfection with GST-π siRNA. […] The cell extract thus obtained was subjected to quantitative protein analysis using a Micro BCA Protein Assay Kit (Thermo SCIENTIFIC) (GST-π siRNA transfectant: 4.35 μg/μL, Scramble siRNA transfectant: 4.56 μg/μL). […] A reaction with a chemiluminescent substrate was then carried out at room temperature for 1 min., and then this chemiluminescence was detected using an X-ray film. Washing between operations was carried out three times by shaking for 5 min using PBS-T. Furthermore, after transfection with siRNA, plating on a 60 mm plastic tissue culture dish was carried out to give 1.0×10^5 cells/5 mL, and the total cell count in the dish was measured using a hemocytometer up to the 4th day.

[2] = tested on: M7609 cells; experiment: Autophagy induction by electron microscope examination; conditions: 2 days after transfection, electron microscope (FIG. 7)
Experimental: On the 1st day after siRNA transfection in Example 1 (2), the cells were plated on an 8-well culture slide for tissue culture so as to give 0.4×10^5 cells/0.5 mL. Fixation was carried out using 2.5% glutaraldehyde in 0.1 M cacodylic acid buffer (pH 7.4) for hour, and after rinsing with 0.1 M cacodylic acid buffer post-fixation was carried out using 1% OsO4 and 1.5% potassium ferrocyanide for 2 hours. After dehydration was carried out three times with ethanol for 10 min., embedding in an epoxy resin (TAAB Laboratories Equipment) was carried out. An ultrathin section was prepared using a diamond knife, electron staining was carried out using uranyl acetate and lead citrate, and the section was examined using an electron microscope (Hitachi Transmission Electron Microscope H-7500, Hitachi High-Technologies Corporation).

[3] = tested on: RAS/Raf/MAPK signal cascade; experiment: Western blot of protein involved in RAS/Raf/MAPK signal cascade; conditions: M7609 cells
Experimental: A western blot analysis for the main protein involved in the RAS/Raf/MAPK signal cascade was carried out in the same way as for (3) above using cells harvested on the 2nd day after transfection with GST-π siRNA. As antibodies, in addition to anti-GST-π antibody, anti-p-Raf-1 (Ser338) antibody (MILLIPORE), anti-Raf-1 antibody (Santa Cruz), anti-p-MEK1/2 (Ser217/221) antibody (Cell Signaling), anti-MEK1/2 antibody (Cell Signaling), anti-p-ERK1/2 (Thr202/Tyr204) antibody (Cell Signaling), anti-ERK antibody (Cell Signaling), and anti-GAPDH antibody (Abcam) were used.

[4] = tested on: Raf-1; experiment: Immunoprecipitation of Raf-1 and anti-ubiquitin western blot; conditions: M7609 cells
Experimental: In the same way as for Example 1 (3), on the 2nd day after siRNA transfection culturing was carried out for 16 hours in a serum-free medium, and a cell extract was collected. The cell extract thus obtained was subjected to quantitative protein analysis using a Micro BCA Protein Assay Kit (Scramble siRNA: 8.88 μg/μL, GST-π siRNA: […]). 0.5 μg of the cell extract was mixed with anti-Raf-1 antibody conjugated to Dynabeads Protein G (Invitrogen), incubation was carried out at 4° C. for 2 hours while gently mixing in a shaker to thus isolate Raf-1 protein, and then a western blot analysis was carried out in the same way as for Example 1 (3) using an anti-ubiquitin antibody (Santa Cruz). Phosphorylation modification of Ser621, which is involved in inhibition of Raf-1 proteasome degradation, was investigated in the same manner using an anti-p-Raf-1 (Ser621) antibody (MILLIPORE).

GST-π siRNA: GST-π siRNA (SEQ ID No: 1: GGGAGGCAAGACCUUCAUUTT, siRNA ID#2385, Ambion) (chemistry not given here)
expression of GST-π ([1]; 4 days after transfection (FIG. 1b)): still stably suppressed | expression of GST-π ([1]; siRNA transfection, western blot (FIG. 1a)): suppressed | autophagosome formation [2]: autophagosome was formed | expression level of Raf protein ([3]; 2nd day after transfection (FIG. 2)): decreases | phosphorylation of proteins involved in the RAS/Raf/MAPK signal cascade ([3]; 2nd day after transfection, compared with Scramble siRNA (FIG. 2)): decreased | ubiquitination of Raf-1 ([4]; 2nd day after transfection, compared with Scramble siRNA (FIG. 3)): enhanced | expression of Raf protein and Ser621 phosphorylated Raf protein (p-Raf-1 (S621)) ([4]; Raf-1 immunoprecipitate (FIG. 3)): decreased slightly
